According to ChEMBL document CHEMBL1201862, “PubChem BioAssay data set” (2004):
Activity calls are given as the source filed them.

Experiments:
[1] = target: T1, Probable nicotinate-nucleotide adenylyltransferase (Staphylococcus aureus (strain N315), UniProt P65502); assay type: functional, Staphylococcus aureus subsp. aureus N315; settings: read-out: IC50_Mean;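 for IC50 Mean: confirmatory dose-response retesting of NadD inhibitor hits first found in an ultra-high-throughput screen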
[2] = target: Prothrombin (Homo sapiens, UniProt P00734); assay: Thrombin 1536 HTS Dose Response Confirmation. [Related pubchem assays: 1046 (Thrombin 1536 HTS; hits were confirmed in this assay)]; assay type: functional
[3] = target: T1, Probable nicotinate-nucleotide adenylyltransferase; assay type: functional, Staphylococcus aureus subsp. aureus N315
[4] = viability of uninfected HEp-2 cells – cell-based, HTS, cytotoxicity control for RSV inhibitor project, dose response (AID 2410); assay type: functional; settings: human respiratory syncytial virus
[5] = Luminescence Cell-Based Dose Response HTS to Identify Inhibitors of 5'UTR Stem-Loop Driven Prion Protein mRNA Translation in H4 Neuroglioblastoma Cells. [Related pubchem assays: 1827 (Project Summary), 1813 (Primary HTS)]; assay type: functional
[6] = blockade of melanocortin 4 receptor signaling – cell-based, plate reader, cherry pick, counter-screen for LGR2 antagonist project, dose response (AID 743444); assay type: functional;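 note: transfected HEK 293 cells stimulated with alpha-MSH peptide; potency of inhibitors of the alpha-MSH evoked signal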
[7] = tested on: HEK293; assay: EBV LMP1 TES2 canonical NF-kB signalling blockers – cell-based, HEK293, luciferase, cherry-pick, dose response (AID 588343); assay type: functional; settings: Homo sapiens
[8] = luciferase reporter signal suppression in cells – H4 neuroglioma cells, luminescence, dose response (AID 1990); assay type: functional, cell-based
[9] = blockers of bursicon-stimulated LGR2 cAMP reporter – cell-based, HEK293, CRE-luciferase reporter, cherry pick, set 2, dose response (AID 743343); assay type: functional;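 note: transfected cells were stimulated with diluted bursicon conditioned medium after compound addition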
[10] = viability loss in HEK293 cells – cell-based, plate reader, cherry-picked samples, cytotoxicity control, dose response (AID 743446); assay type: functional
[11] = alpha-synuclein stem-loop luciferase translation blockers – H4 neuroglioma cells, luminescence, confirmation (AID 1988); assay type: functional, cell-based
[12] = target: T2, Replicative DNA helicase DnaB (Mycobacterium tuberculosis, UniProt P9WMR3); assay: DnaB intein splicing inhibitors, dose response, biochemical, cell-free fluorescence (AID 449749); assay type: functional
T2 sequence (P9WMR3 whole entry): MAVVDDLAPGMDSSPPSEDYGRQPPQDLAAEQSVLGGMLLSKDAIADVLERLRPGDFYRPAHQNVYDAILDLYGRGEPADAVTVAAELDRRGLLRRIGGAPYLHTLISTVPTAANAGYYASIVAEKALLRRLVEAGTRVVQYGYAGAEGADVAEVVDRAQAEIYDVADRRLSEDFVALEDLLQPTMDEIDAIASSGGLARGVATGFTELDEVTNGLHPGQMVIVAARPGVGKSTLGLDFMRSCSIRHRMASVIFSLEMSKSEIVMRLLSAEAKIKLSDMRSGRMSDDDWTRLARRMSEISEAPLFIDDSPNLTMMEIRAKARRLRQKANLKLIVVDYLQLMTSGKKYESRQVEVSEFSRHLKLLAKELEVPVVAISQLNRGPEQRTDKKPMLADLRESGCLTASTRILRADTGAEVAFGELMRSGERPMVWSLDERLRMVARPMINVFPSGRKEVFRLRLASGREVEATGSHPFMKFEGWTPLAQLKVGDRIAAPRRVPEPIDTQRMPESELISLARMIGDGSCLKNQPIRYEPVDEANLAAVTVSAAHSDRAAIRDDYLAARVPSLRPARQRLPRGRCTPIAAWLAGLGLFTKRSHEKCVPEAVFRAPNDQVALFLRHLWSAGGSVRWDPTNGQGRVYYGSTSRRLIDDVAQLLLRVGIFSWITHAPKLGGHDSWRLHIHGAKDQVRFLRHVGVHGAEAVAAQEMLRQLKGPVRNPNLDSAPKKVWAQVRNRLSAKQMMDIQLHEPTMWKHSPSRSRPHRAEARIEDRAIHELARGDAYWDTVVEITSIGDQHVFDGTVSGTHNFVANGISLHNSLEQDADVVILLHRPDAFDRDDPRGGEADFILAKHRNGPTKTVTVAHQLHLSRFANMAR

[13] = target: Glucose-6-phosphate 1-dehydrogenase (Homo sapiens, UniProt P11413); assay: inhibition of Homo sapiens G6PD, dose series – biochemical, fluorescence, selectivity assay for P. falciparum G6PD inhibitor project, dose response (AID 504792); assay type: functional
Glucose-6-phosphate 1-dehydrogenase, sequence (P11413 whole entry): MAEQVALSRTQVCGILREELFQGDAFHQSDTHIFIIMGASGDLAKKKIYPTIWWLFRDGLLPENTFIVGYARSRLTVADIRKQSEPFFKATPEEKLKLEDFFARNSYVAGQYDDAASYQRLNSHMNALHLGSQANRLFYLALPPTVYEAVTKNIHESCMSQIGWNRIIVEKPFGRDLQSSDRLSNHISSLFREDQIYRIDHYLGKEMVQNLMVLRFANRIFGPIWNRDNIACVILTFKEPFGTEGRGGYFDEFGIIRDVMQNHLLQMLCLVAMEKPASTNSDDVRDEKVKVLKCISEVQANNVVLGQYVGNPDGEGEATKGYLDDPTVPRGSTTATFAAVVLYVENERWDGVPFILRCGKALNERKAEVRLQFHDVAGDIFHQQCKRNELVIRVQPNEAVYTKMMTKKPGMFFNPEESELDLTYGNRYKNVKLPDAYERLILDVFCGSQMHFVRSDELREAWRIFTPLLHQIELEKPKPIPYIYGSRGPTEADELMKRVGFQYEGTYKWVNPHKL

[14] = target: T3, Protein RecA (Mycobacterium tuberculosis, UniProt P9WHJ3); assay: Fluorescence Cell-Free Homogeneous Dose Retest to Identify Inhibitors of RecA-Intein Splicing Activity. [Related pubchem assays (depositor defined):AID2097, AID2223, AID489010, AID492950]; assay type: functional
T3 sequence (P9WHJ3 whole entry): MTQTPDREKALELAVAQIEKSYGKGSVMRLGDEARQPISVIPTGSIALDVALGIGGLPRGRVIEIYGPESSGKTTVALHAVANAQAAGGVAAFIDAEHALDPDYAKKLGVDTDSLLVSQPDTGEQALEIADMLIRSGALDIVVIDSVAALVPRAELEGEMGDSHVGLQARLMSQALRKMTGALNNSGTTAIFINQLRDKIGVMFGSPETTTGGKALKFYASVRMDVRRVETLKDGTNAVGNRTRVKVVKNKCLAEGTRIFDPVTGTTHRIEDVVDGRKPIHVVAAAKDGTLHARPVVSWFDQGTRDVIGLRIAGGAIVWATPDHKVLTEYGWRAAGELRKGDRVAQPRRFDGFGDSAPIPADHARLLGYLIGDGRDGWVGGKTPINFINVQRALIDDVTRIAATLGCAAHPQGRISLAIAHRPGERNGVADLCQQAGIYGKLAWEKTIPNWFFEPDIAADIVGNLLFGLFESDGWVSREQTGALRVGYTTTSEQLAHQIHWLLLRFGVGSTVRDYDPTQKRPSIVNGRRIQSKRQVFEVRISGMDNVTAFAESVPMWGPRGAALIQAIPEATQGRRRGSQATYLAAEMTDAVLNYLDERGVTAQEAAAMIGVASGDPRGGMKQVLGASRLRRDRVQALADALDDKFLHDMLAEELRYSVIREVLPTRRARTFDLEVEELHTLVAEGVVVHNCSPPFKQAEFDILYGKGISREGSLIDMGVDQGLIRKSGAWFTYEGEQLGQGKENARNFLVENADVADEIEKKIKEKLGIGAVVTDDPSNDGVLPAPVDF

[15] = target: T4, Apoptotic protease-activating factor 1 (Homo sapiens, UniProt O14727); assay type: functional
T4 sequence (O14727 whole entry): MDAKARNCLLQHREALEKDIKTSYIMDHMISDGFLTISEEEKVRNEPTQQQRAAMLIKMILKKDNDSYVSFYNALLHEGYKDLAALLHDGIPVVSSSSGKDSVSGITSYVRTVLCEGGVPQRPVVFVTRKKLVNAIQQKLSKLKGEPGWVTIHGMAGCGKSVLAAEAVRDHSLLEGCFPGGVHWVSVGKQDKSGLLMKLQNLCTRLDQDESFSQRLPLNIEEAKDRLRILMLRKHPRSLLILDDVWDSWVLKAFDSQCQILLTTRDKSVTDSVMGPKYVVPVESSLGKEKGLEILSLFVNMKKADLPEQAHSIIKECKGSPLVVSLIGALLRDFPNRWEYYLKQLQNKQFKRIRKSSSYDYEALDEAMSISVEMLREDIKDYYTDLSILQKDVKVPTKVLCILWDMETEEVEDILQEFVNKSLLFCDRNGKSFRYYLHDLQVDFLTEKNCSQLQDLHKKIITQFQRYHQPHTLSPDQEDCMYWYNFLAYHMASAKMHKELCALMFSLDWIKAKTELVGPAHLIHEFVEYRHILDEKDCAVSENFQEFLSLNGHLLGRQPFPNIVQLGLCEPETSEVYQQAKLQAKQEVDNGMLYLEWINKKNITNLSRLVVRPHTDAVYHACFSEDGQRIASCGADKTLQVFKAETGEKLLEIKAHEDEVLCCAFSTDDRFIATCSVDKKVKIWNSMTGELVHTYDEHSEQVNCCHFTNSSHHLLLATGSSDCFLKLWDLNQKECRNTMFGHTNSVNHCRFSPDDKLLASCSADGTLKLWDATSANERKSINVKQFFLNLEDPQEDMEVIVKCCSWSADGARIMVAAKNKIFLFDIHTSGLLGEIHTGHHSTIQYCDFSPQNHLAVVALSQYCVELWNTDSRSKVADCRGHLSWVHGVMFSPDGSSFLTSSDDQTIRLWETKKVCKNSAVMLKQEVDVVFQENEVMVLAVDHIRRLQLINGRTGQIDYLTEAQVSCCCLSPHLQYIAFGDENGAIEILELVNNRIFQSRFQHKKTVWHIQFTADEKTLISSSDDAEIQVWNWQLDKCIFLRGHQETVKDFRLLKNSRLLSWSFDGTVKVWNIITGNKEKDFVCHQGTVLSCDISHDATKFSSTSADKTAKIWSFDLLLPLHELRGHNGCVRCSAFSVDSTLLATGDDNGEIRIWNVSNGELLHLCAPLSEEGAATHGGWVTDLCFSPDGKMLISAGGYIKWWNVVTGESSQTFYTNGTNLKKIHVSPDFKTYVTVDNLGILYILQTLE

[16] = tested on: P388/ADR; assay: cells; assay type: functional; settings: Mus musculus
[17] = tested on: P388; assay: cells; assay type: functional; settings: Mus musculus
[18] = tested on: SN12K1; assay: cells; assay type: functional; settings: Homo sapiens
[19] = target: T5, Heat shock factor protein 1 (Mus musculus, UniProt P38532); assay: enhancement of HSF1-driven luciferase signal – cell-based, NIH3T3, luminescence, dose retest, confirmation (AID 435004); assay type: functional;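 note: stress induced by proteasome inhibitor MG132 added 30 min after compound; luciferase reporter driven by HSF1 response element in NIH3T3 cells; actives raise luminescence as potentiators of the MG132 stress response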
T5 sequence (P38532 whole entry): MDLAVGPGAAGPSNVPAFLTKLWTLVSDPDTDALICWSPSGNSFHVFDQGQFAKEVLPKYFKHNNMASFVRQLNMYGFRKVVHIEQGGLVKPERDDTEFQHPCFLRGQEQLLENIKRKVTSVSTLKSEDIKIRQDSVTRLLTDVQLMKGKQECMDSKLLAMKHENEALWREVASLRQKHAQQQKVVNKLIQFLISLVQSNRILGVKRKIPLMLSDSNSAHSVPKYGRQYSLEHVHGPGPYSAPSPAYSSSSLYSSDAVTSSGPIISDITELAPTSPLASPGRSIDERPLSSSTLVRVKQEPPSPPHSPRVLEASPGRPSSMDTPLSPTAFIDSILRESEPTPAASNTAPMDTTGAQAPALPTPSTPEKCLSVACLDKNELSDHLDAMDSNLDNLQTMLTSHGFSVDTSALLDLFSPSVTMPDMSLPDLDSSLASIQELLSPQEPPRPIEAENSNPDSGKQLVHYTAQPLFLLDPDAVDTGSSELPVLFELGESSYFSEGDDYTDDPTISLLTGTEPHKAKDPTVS

[20] = target: Disintegrin and metalloproteinase domain-containing protein 17 (Homo sapiens, UniProt P78536); assay: exosite inhibitors of ADAM17, dose response, biochemical (AID 743260)
Disintegrin and metalloproteinase domain-containing protein 17, sequence (P78536 whole entry, the tested form may be a part): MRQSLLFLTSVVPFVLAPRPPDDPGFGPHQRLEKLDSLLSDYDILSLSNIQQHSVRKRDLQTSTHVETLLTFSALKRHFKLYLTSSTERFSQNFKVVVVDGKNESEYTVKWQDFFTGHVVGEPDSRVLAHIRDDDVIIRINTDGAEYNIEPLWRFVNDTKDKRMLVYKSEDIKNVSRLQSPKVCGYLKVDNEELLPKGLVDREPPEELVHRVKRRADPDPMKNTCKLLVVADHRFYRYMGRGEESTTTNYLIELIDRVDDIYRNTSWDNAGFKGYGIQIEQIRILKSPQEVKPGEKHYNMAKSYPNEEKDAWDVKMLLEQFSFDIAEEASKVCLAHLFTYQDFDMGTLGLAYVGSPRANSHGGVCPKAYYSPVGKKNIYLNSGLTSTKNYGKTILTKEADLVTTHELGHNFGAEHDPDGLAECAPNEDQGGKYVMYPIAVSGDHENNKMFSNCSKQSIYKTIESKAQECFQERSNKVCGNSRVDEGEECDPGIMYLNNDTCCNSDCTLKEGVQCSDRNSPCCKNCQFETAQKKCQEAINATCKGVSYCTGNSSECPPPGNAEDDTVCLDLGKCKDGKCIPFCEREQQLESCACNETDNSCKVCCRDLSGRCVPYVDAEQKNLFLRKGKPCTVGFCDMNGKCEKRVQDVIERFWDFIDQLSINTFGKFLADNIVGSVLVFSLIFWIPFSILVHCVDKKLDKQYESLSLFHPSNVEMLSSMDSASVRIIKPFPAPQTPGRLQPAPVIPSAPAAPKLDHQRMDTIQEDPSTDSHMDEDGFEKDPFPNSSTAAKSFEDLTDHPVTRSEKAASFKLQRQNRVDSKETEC

T1 sequence (P65502 whole entry): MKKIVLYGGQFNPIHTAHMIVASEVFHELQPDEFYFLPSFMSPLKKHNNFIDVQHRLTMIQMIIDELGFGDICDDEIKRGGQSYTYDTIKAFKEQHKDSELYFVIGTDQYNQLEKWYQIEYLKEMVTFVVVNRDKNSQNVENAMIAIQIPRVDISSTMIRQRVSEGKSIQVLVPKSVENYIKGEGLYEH

With `Cn1c(SCC(=O)N2c3ccccc3CCc3ccccc32)nnc1-c1cc2ccccc2cc1O` the IC50 [1] was 24.5 µM (active), the IC50 [2] was > 50 µM (not active) and the IC50 [3] was 7.15 µM (active). For the same compound, the CC50 [4] was > 50 µM (active).

With `Cc1csc(SCC(=O)NCc2ccccc2Cl)n1` the IC50 [2] was > 50 µM (not active).

With `Cc1ccc(C(=O)Nc2ccc3c(c2)OCCO3)c(Cl)c1` the EC50 [5] was 5.14 µM (active), the AC50 [6] was 3.76 µM (active) and the AC50 [7] was 1.27 µM (active). The EC50 [8] was 6.61 µM (inconclusive), the AC50 [9] was 3.65 µM (active) and the AC50 [10] was > 52 µM (inactive). The EC50 [11] was 3.89 µM (active).

For `COc1ccc(OCC(=O)Nc2cccc3ncccc23)cc1`, the IC50 [2] was > 50 µM (not active).

For `CC(=O)Nc1ccc(S(=O)(=O)[N-]C2=C(n3cc[n+](-c4ccccn4)c3)C(=O)c3ccccc3C2=O)cc1`, the AC50 [12] was 3.92 µM (active), the IC50 [13] was > 80 µM (inactive) and the EC50 [14] was 3.46 µM (active). The IC50 [15] was 6.71 µM (active).

For `CCCNC1=C(C)C(=O)C2=C(C1=O)[C@H](COC(N)=O)[C@]1(OC)[C@@H]3N[C@@H]3CN21`, the GI50 [16] was 4.66 µM (inactive), the GI50 [17] was 0.32 µM (active) and the GI50 [18] was 4.36 µM (inactive).

With `Cc1ccc(C(C)(C)C[P+](C)(c2ccccc2)c2ccccc2)cc1` the GI50 [16] was > 100 µM (inactive), the GI50 [17] was 0.508 µM (active) and the GI50 [18] was 6.49 µM (inactive).

In the case of `COc1ccc2c(c1)c1c(C)c3cnccc3c(C)c1n2CCCN`, the GI50 [16] is reported as 0.185 µM (active), the GI50 [17] is reported as 0.0505 µM (active) and the GI50 [18] is reported as 0.102 µM (active).

For `CC(=O)Nc1cccc(/N=N/N(C)C)c1`, the GI50 [16] was > 100 µM (inactive), the GI50 [17] was > 100 µM (inactive) and the GI50 [18] was > 57.5 µM (inactive).

In the case of `CCCC(O)C(NC(=O)CCl)C(=O)O` (configuration not stated), the GI50 [16] is reported as > 100 µM (inactive), the GI50 [17] is reported as > 100 µM (inactive) and the GI50 [18] is reported as > 100 µM (inactive).

For `CSCCC(NC(=O)C(Cc1ccccc1)NC(=O)CNC(=O)CNC(=O)C(N)Cc1ccc(O)cc1)C(=O)O` (configuration not stated), the GI50 [16] was > 100 µM (inactive), the GI50 [17] was > 100 µM (inactive) and the GI50 [18] was > 100 µM (inactive).

For `COC(=O)c1cccc(Cn2c(Cl)c(/C=N/Nc3ccccc3C)sc2=O)c1`, the EC50 [19] was 61.2 µM (active) and the IC50 [20] was > 69.5 µM (inactive).
